Measurements from patent US20240390340A1 (INCYTE CORPORATION, priority 2023, published 2024).

System: KRAS
Assay: KRAS inhibition, assay not specified (at least one assay described herein)
Conditions: Peak 1 versus Peak 2 of prep. LCMS; assay not stated

Structure (SMILES) | potency of the separated diastereoisomer (atropisomer) in words
C[C@@H](O)c1nc2c(F)c(-c3cccc(Cl)c3Cl)c(CCC#N)cc2c2c1cc([C@H]1[C@@H](F)[C@H](Oc3ccccn3)CN1C(=O)C1CC1)n2[C@H]1[C@H]2CN[C@@H]1C2 (single isomer, unassigned) | potent
COc1ncccc1O[C@H]1C[C@H](c2cc3c(C)nc4c(F)c(-c5cccc(Cl)c5Cl)c(CCC#N)cc4c3n2[C@H]2[C@H]3CN[C@@H]2C3)N(C(=O)C2CC2)C1 (single isomer, unassigned) [Example 1, Diastereomer 1 (Peak 1)] | potent
COc1cc(O[C@H]2C[C@H](c3cc4c(C(C)O)nc5c(F)c(-c6cccc(Cl)c6Cl)c(CCC#N)cc5c4n3[C@H]3[C@H]4CN[C@@H]3C4)N(C(=O)C3CC3)C2)ccn1 (single isomer, unassigned) [Example 2, Diastereomer 1 (Peak 1)] | potent
Cc1nc2c(F)c(-c3cccc(Cl)c3Cl)c(CCC#N)cc2c2c1cc([C@H]1C[C@H](n3cc(C(C)(C)C)nn3)CN1C(=O)C1CC1)n2[C@H]1[C@H]2CN[C@@H]1C2 (single isomer, unassigned) [Example 4, Diastereomer 1 (Peak 1)] | potent
CC(O)c1nc2c(F)c(-c3cccc(Cl)c3Cl)c(CCC#N)cc2c2c1cc([C@H]1C[C@H](OCc3ccc(F)cc3C#N)CN1C(=O)C1(C)CC1)n2[C@H]1[C@H]2CN[C@@H]1C2 (single isomer, unassigned) [Example 35, Diastereomer 1 (Peak 1)] | potent
COc1cc(O[C@H]2C[C@H](c3cc4c([C@@H](C)O)nc5c(F)c(-c6cccc(Cl)c6Cl)c(CCC#N)cc5c4n3[C@H]3[C@H]4CN[C@@H]3C4)N(C(=O)C3CC3)[C@@H]2C)c(F)cn1 (single isomer, unassigned) [Example 51, Diastereomer 1 (Peak 1)] | potent
COc1cc(O[C@H]2C[C@H](c3cc4c([C@@H](C)O)nc5c(F)c(-c6cccc(Cl)c6Cl)c(CCC#N)cc5c4n3[C@H]3[C@H]4CN[C@@H]3C4)N(C(=O)C3(C)CC3)[C@@H]2C)c(F)cn1 (single isomer, unassigned) [Example 52, Diastereomer 1 (Peak 1)] | potent
COc1nccc(O[C@H]2C[C@H](c3cc4c([C@@H](C)O)nc5c(F)c(-c6cccc(Cl)c6Cl)c(CCC#N)cc5c4n3[C@H]3[C@H]4CN[C@@H]3C4)N(C(=O)C3CC3)C2)c1F (single isomer, unassigned) [Example 53, Diastereomer 1 (Peak 1)] | potent
C[C@@H](O)c1nc2c(F)c(-c3cccc(Cl)c3Cl)c(CCC#N)cc2c2c1cc([C@H]1C[C@H](Oc3nccs3)CN1C(=O)C1CC1)n2[C@H]1[C@H]2CN[C@@H]1C2 (single isomer, unassigned) [Example 54, Diastereomer 1 (Peak 1)] | potent
Cc1cc(F)cc(O[C@H]2C[C@H](c3cc4c([C@@H](C)O)nc5c(F)c(-c6cccc(Cl)c6Cl)c(CCC#N)cc5c4n3[C@H]3[C@H]4CN[C@@H]3C4)N(C(=O)C3CC3)C2)n1 (single isomer, unassigned) [Example 62, Diastereomer 1 (Peak 1)] | potent
C[C@@H]1[C@@H](Oc2cc(F)ccn2)C[C@H](c2cc3c([C@@H](C)O)nc4c(F)c(-c5cccc(Cl)c5Cl)c(CCC#N)cc4c3n2[C@H]2[C@H]3CN[C@@H]2C3)N1C(=O)C1CC1 (single isomer, unassigned) [Example 63, Diastereomer 1 (Peak 1)] | potent
C[C@@H]1[C@@H](Oc2c(F)ccnc2Cl)C[C@H](c2cc3c([C@@H](C)O)nc4c(F)c(-c5cccc(Cl)c5Cl)c(CCC#N)cc4c3n2[C@H]2[C@H]3CN[C@@H]2C3)N1C(=O)C1CC1 (single isomer, unassigned) [Example 64, Diastereomer 1 (Peak 1)] | potent
COc1ccc(O[C@H]2C[C@H](c3cc4c([C@@H](C)O)nc5c(F)c(-c6cccc(Cl)c6Cl)c(CCC#N)cc5c4n3[C@H]3[C@H]4CN[C@@H]3C4)N(C(=O)C3CC3)C2)cn1 (single isomer, unassigned) [Example 76, Diastereomer 1 (Peak 1)] | potent
C[C@@H](O)c1nc2c(F)c(-c3cccc(Cl)c3Cl)c(CCC#N)cc2c2c1cc([C@H]1C[C@H](Oc3cc(C4CC4)on3)CN1C(=O)C1CC1)n2[C@H]1[C@H]2CN[C@@H]1C2 (single isomer, unassigned) [Example 77, Diastereomer 1 (Peak 1)] | potent
Cc1nc2c(F)c(-c3cccc(Cl)c3Cl)c(CCC#N)cc2c2c1cc([C@H]1C[C@H](OC3(C)CCC3)CN1C(=O)C1CC1)n2[C@H]1[C@H]2CN[C@@H]1C2 (single isomer, unassigned) [Example 78, Diastereomer 1 (Peak 1)] | potent
Cc1nc2c(F)c(-c3cccc(Cl)c3Cl)c(CCC#N)cc2c2c1cc([C@H]1C[C@H](OC(F)(F)c3ccccc3)CN1C(=O)C1CC1)n2[C@H]1[C@H]2CN[C@@H]1C2 (single isomer, unassigned) [Example 79, Diastereomer 1 (Peak 1)] | potent
[2H]C([2H])([2H])O[C@H]1CC[C@@H]1O[C@H]1C[C@H](c2cc3c(C)nc4c(F)c(-c5cccc(Cl)c5Cl)c(CCC#N)cc4c3n2[C@H]2[C@H]3CN[C@@H]2C3)N(C(=O)C2CC2)C1 (single isomer, unassigned) [Example 80, Diastereomer 1 (Peak 1)] | potent
Cc1nc2c(F)c(-c3cccc(Cl)c3Cl)c(CCC#N)cc2c2c1cc([C@H]1C[C@](C)(OCc3ccccc3)CN1C(=O)C1CC1)n2[C@H]1[C@H]2CN[C@@H]1C2 (single isomer, unassigned) [Example 81, Diastereomer 1 (Peak 1)] | potent
CC[C@@H]1[C@@H](Oc2cc(OC)ncc2F)C[C@H](c2cc3c([C@@H](C)O)nc4c(F)c(-c5cccc(Cl)c5Cl)c(CCC#N)cc4c3n2[C@H]2[C@H]3CN[C@@H]2C3)N1C(=O)C1CC1 (single isomer, unassigned) [Example 82, Diastereomer 1 (Peak 1)] | potent
